Laboratory results taken from patent publication US7803816B2, “MCH receptor antagonists” (Hoffmann-La Roche Inc., priority 2005, dated 2010).
Where a name gives a salt, the structure may show the parent alone.

Target: T1, recombinant human MCHR1-receptors (Homo sapiens, UniProt Q99705)
T1 construct: expressed in transfected cells
Test: MCHR filter binding assay (competition binding)
Details: membranes from CHO-K1 cells expressing human MCHR1; 0.2 nM [Phe13,[125I]Tyr19]-MCH; read-out: IC50 (nM), in vitro activity (binding assay)
Method: MCHR Filter Binding Assay
Competition binding assays were performed using membranes from CHO-K1 cells stably expressing the recombinant human MCHR1-receptors. Binding reactions (90 μl, final volume) were carried out at rt by incubating 2.8 μg membranes with 0.2 nM [Phe^13,[^125I]Tyr^19]-MCH (PerkinElmer) in the absence or presence of various concentrations of competing ligands in binding buffer (50 mM HEPES, 2.5 mM CaCl2, 0.05 mM BSA, 1 mM phenanthroline, 0.03 mM Triton X-100). [Phe^13,[^125I]Tyr^19]-MCH was added 15 min following the addition of unlabeled competing ligands, and the reactions incubated for a 1 h period. The reactions were terminated by rapid filtration over pretreated 96-well filter plates (Millipore; MultiScreen 0.65 μm GFB filter plates). Filter Plates were treated for 12 h at 4° C. with a 0.5% polyvinylpyrrolidone solution containing 1% BSA and 0.1% Tween 20, and then washed with an ice-cold solution of 10 mM Tris, pH 7.5 (5×200 μl). The plates were drained following a 5 min incubation with binding buffer (200 μl) at rt. Following termination of the binding reactions, the filters were washed with ice-cold binding buffer (4×200 μl). The filter plates were air dried for 30 min, scintillation cocktail (60 μl) added to each well and radioactivity bound to the plates was determined using a Micro-beta plate reader (Wallace/PerkinElmer).

T1 sequence (Q99705 whole entry): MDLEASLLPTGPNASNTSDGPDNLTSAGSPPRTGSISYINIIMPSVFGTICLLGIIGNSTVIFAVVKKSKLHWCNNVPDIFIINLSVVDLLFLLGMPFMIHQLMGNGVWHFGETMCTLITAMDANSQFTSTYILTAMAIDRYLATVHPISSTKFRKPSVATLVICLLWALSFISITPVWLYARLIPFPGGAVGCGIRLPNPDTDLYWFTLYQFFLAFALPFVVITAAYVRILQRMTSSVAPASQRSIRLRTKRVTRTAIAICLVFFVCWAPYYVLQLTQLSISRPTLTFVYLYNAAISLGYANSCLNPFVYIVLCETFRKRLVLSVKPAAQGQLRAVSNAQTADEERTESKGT

| Compound | IC50 [nM] |
| --- | --- |
| Cc1ccc2c(c1)nc(C)n2[C@@H]1CCN(C[C@@H]2Cc3ccc(NC(=O)C(C)C)cc3C2)C[C@H]1CO [Example 36, N-{(R)-2-[4-(2,5-Dimethyl-benzoimidazol-1-yl)-3-hydroxymethyl-piperidin-1-ylmethyl]-indan-5-yl}-isobutyramide] | < 20 |
| Cc1ccc2c(c1)nc(C)n2C1CCN(C[C@H]2Cc3ccc(NC(=O)Cc4cccs4)cc3C2)CC1 [Example 38, N-{(S)-2-[4-(2,5-Dimethyl-benzoimidazol-1-yl)-piperidin-1-ylmethyl]-indan-5-yl}-2-thiophen-2-yl-acetamide] | < 20 |
| CO[C@@H]1CN(C[C@H]2Cc3ccc(NC(=O)C(C)C)cc3C2)CC[C@H]1n1c(C)nc2cc(C)ccc21 [Example 39, N-{(S)-2-[(3R,4R)-4-(2,5-Dimethyl-benzoimidazol-1-yl)-3-methoxy-piperidin-1-ylmethyl]-indan-5-yl}-isobutyramide; dihydrochloride] | < 20 |
| COC(=O)Nc1ccc2c(c1)C[C@H](CN1CCC(n3c(C(C)(C)C)nc4cc(C)ccc43)CC1)C2 [Example 40, {(R)-2-[4-(2-tert-Butyl-5-methyl-benzoimidazol-1-yl)-piperidin-1-ylmethyl]-indan-5-yl}-carbamic acid methyl ester] | < 20 |
| Cc1ccc2c(c1)nc(C(C)(C)C)n2C1CCN(C[C@@H]2Cc3ccc(NC(=O)C(C)C)cc3C2)CC1 [Example 41, N-{(R)-2-[4-(2-tert-Butyl-5-methyl-benzoimidazol-1-yl)-piperidin-1-ylmethyl]-indan-5-yl}-isobutyramide] | < 20 |
| COC(=O)Nc1ccc2c(c1)C[C@H](CN1CCC(n3c(-c4ccccc4)nc4cc(C)ccc43)CC1)C2 [Example 42, {(R)-2-[4-(5-Methyl-2-phenyl-benzoimidazol-1-yl)-piperidin-1-ylmethyl]-indan-5-yl}-carbamic acid methyl ester] | < 20 |
| CO[C@@H]1CN(C[C@H]2Cc3ccc(NC(=O)C(C)C)cc3C2)CC[C@H]1n1c(C)nc2cc(C)ccc21 [Example 43, N-{(S)-2-[(3R,4R)-4-(2,5-Dimethyl-benzoimidazol-1-yl)-3-methoxy-piperidin-1-ylmethyl]-indan-5-yl}-isobutyramide] | 20 to 200 |
| CCCC(=O)Nc1ccc2c(c1)C[C@@H](CN1CCC(n3c(C)nc4cc(C)ccc43)CC1)C2 [Example 44, -{(S)-2-[4-(2,5-Dimethyl-benzoimidazol-1-yl)-piperidin-1-ylmethyl]-indan-5-yl}-butyramide] | 20 to 200 |
| CCC(=O)Nc1ccc2c(c1)C[C@H](CN1CC[C@@H](n3c(C(C)C)nc4cc(C)ccc43)[C@H](OC)C1)C2 [Example 45, N-{(R)-2-[(3R,4R)-4-(2-Isopropyl-5-methyl-benzoimidazol-1-yl)-3-methoxy-piperidin-1-ylmethyl]-indan-5-yl}-propionamide] | 20 to 200 |
| Cc1ccc2c(c1)nc(C)n2C1CCN(CC2Cc3ccc(NC(=O)C(C)C)cc3C2)CC1 (centres unmarked) [Example 46, N-{2-[4-(2,5-Dimethyl-benzoimidazol-1-yl)-piperidin-1-ylmethyl]-indan-5-yl}-isobutyramide] | 20 to 200 |
| CO[C@@H]1CN(C[C@@H]2Cc3ccc(NC(=O)C(C)C)cc3C2)CC[C@H]1n1c(C)nc2cc(C)ccc21 [Example 47, N-{(R)-2-[(3R,4R)-4-(2,5-Dimethyl-benzoimidazol-1-yl)-3-methoxy-piperidin-1-ylmethyl]-indan-5-yl}-isobutyramide] | 20 to 200 |
| Cc1ccc2c(c1)nc(C)n2C1CCN(C[C@H]2Cc3ccc(NC(=O)C(C)C)cc3C2)CC1 [Example 48, N-{(S)-2-[4-(2,5-Dimethyl-benzoimidazol-1-yl)-piperidin-1-ylmethyl]-indan-5-yl}-isobutyramide] | 20 to 200 |
| CO[C@H]1CN(C[C@H]2Cc3ccc(NC(=O)C(C)C)cc3C2)CC[C@@H]1n1c(C)nc2cc(C)ccc21 [Example 49, N-{(S)-2-[(3S,4S)-4-(2,5-Dimethyl-benzoimidazol-1-yl)-3-methoxy-piperidin-1-ylmethyl]-indan-5-yl}-isobutyramide] | 20 to 200 |
| CO[C@@H]1CN(CC2Cc3ccccc3C2)CC[C@H]1n1c(C)nc2cc(C)ccc21 [Example 50, 1-((3R,4R)-1-Indan-2-ylmethyl-3-methoxy-piperidin-4-yl)-2,5-dimethyl-1H-benzoimidazole] | 20 to 200 |
| CCC(C)C(=O)Nc1ccc2c(c1)CC(CN1CCC(n3c(C)nc4cc(C)ccc43)CC1)C2 (centres unmarked) [Example 51, N-{2-[4-(2,5-Dimethyl-benzoimidazol-1-yl)-piperidin-1-ylmethyl]-indan-5-yl}-2-methyl-butyramide] | 20 to 200 |
| Cc1ccc2c(c1)nc(-c1ccccc1)n2C1CCN(C[C@@H]2Cc3ccc(N)cc3C2)CC1 [Example 52, (R)-2-[4-(5-Methyl-2-phenyl-benzoimidazol-1-yl)-piperidin-1-ylmethyl]-indan-5-ylamine] | 20 to 200 |
| Cc1ccc2c(c1)nc(C)n2C1CCN(CC2=Cc3ccc(NC(=O)C(C)C)cc3C2)CC1 [Example 53, N-{2-[4-(2,5-Dimethyl-benzoimidazol-1-yl)-piperidin-1-ylmethyl]-3H-inden-5-yl}-isobutyramide] | 20 to 200 |
| Cc1ccc2c(c1)nc(C)n2C1CCN(CC2=Cc3cc(NC(=O)C(C)C)ccc3C2)CC1 [Example 54, N-{2-[4-(2,5-Dimethyl-benzoimidazol-1-yl)-piperidin-1-ylmethyl]-1H-inden-5-yl}-isobutyramide] | 200 to 5000 |
| CCC(=O)Nc1ccc2c(c1)C[C@H](CN1CCC(n3c(C(C)C)nc4cc(C)ccc43)C(OC)C1)C2 (stereo partly drawn) [Example 59, N-{(R)-2-[4-(2-Isopropyl-5-methyl-benzoimidazol-1-yl)-3-methoxy-piperidin-1-ylmethyl]-indan-5-yl}-propionamide] | < 20 |
| CCC(=O)Nc1ccc2c(c1)C[C@H](CN1CC[C@H](n3c(C4CC4)nc4cc(C)ccc43)[C@@H](OC)C1)C2 [Example 60, N-{(R)-2-[(3S,4S)-4-(2-Cyclopropyl-5-methyl-benzoimidazol-1-yl)-3-methoxy-piperidin-1-ylmethyl]-indan-5-yl}-propionamide] | < 20 |
| CCc1nc2cc(C)ccc2n1C1CCN(C[C@@H]2Cc3ccc(NC(=O)C(C)C)cc3C2)CC1OC (stereo partly drawn) [Example 61, N-{(R)-2-[4-(2-Ethyl-5-methyl-benzoimidazol-1-yl)-3-methoxy-piperidin-1-ylmethyl]-indan-5-yl}-isobutyramide] | < 20 |
| CCCC(=O)Nc1ccc2c(c1)C[C@H](CN1CC[C@H](n3c(C4CC4)nc4cc(C)ccc43)[C@@H](OC)C1)C2 [Example 62, N-{(R)-2-[(3S,4S)-4-(2-Cyclopropyl-5-methyl-benzoimidazol-1-yl)-3-methoxy-piperidin-1-ylmethyl]-indan-5-yl}-butyramide] | < 20 |
| CO[C@H]1CN(C[C@@H]2Cc3ccc(NC(=O)C(F)F)cc3C2)CC[C@@H]1n1c(C2CC2)nc2cc(C)ccc21 [Example 63, N-{(R)-2-[(3S,4S)-4-(2-Cyclopropyl-5-methyl-benzoimidazol-1-yl)-3-methoxy-piperidin-1-ylmethyl]-indan-5-yl}-2,2-difluoro-acetamide] | < 20 |
| COC1CN(C[C@@H]2Cc3ccc(NC(=O)C4CC4)cc3C2)CCC1n1c(C(C)C)nc2cc(C)ccc21 (stereo partly drawn) [Example 64, Cyclopropanecarboxylic acid {(R)-2-[4-(2-isopropyl-5-methyl-benzoimidazol-1-yl)-3-methoxy-piperidin-1-ylmethyl]-indan-5-yl}-amide] | < 20 |
| CO[C@H]1CN(C[C@@H]2Cc3ccc(NC(=O)C(C)C)cc3C2)CC[C@@H]1n1c(C2CC2)nc2cc(C)ccc21 [Example 65, N-{(R)-2-[(3S,4S)-4-(2-Cyclopropyl-5-methyl-benzoimidazol-1-yl)-3-methoxy-piperidin-1-ylmethyl]-indan-5-yl}-isobutyramide] | < 20 |
| CO[C@H]1CN(C[C@@H]2Cc3ccc(NC(=O)C(F)F)cc3C2)CC[C@@H]1n1c(C(C)C)nc2cc(C)ccc21 [Example 67, 2,2-Difluoro-N-{(R)-2-[(3S,4S)-4-(2-isopropyl-5-methyl-benzoimidazol-1-yl)-3-methoxy-piperidin-1-ylmethyl]-indan-5-yl}-acetamide] | < 20 |
| COC1CN(C[C@@H]2Cc3ccc(NC(=O)C(C)C)cc3C2)CCC1n1c(C(C)C)nc2cc(C)ccc21 (stereo partly drawn) [Example 68, N-{(R)-2-[4-(2-Isopropyl-5-methyl-benzoimidazol-1-yl)-3-methoxy-piperidin-1-ylmethyl]-indan-5-yl}-isobutyramide] | < 20 |
| CCC(=O)Nc1ccc2c(c1)C[C@H](CN1CCC(n3c(CC)nc4cc(C)ccc43)C(OC)C1)C2 (stereo partly drawn) [Example 69, N-{(R)-2-[4-(2-Ethyl-5-methyl-benzoimidazol-1-yl)-3-methoxy-piperidin-1-ylmethyl]-indan-5-yl}-propionamide] | < 20 |
| CCc1nc2cc(C)ccc2n1C1CCN(CC2Cc3ccc(NC(=O)C(C)C)cc3C2)CC1 (centres unmarked) [Example 70, N-{2-[4-(2-Ethyl-5-methyl-benzoimidazol-1-yl)-piperidin-1-ylmethyl]-indan-5-yl}-isobutyramide] | < 20 |
